Results published in BindingDB's records for patent US8802711 (Abbvie, 2014).

Biological target: Transient receptor potential cation channel subfamily V member 1 (Homo sapiens, UniProt Q8NER1)
Experiment: FLIPR Assay
Description: All compounds were tested over a 12-point one-third-log concentration range. Compound stocks, 10 mM, were prepared in DMSO, and diluted serially across a 384-well plate using a Bravo BenchCel workstation (Agilent Technologies, Santa Clara, Calif.).

Chain of Transient receptor potential cation channel subfamily V member 1 (Q8NER1 whole entry): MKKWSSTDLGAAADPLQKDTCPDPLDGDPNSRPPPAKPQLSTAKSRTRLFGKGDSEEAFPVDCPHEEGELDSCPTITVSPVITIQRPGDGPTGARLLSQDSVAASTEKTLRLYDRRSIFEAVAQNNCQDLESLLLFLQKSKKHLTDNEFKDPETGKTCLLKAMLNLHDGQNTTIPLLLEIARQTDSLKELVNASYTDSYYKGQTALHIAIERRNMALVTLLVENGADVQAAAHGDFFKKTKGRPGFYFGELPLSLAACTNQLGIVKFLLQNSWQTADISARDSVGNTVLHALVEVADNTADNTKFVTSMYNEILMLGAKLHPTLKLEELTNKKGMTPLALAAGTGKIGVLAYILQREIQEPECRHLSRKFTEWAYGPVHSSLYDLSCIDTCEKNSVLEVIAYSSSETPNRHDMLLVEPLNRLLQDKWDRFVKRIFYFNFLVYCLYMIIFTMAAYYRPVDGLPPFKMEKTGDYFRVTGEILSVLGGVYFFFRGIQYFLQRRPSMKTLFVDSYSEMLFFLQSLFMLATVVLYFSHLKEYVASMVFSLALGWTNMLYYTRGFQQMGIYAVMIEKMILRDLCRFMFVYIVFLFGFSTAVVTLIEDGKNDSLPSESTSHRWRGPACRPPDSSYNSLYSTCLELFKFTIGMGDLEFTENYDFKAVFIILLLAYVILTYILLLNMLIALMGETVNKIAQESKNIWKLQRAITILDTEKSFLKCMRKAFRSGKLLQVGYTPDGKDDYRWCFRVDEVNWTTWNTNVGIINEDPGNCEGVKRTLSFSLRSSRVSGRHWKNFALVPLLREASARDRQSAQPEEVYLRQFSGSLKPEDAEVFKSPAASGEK

Cc1cccnc1N1CC=C(C(=O)Nc2ccc(C(=O)NC(F)(F)F)cc2)CC1 [US8802711, L]
IC50: 100 nM
